The results in this text go back to patent US8461139B2 (Taro Pharmaceuticals North America, Inc., priority 2005, dated 2013).

A short description of the data set: pH screen stability of prednisolone acetate oral suspension (HPLC). Particulars: pH range of 5.0 to 6.2. It counts as physicochemical. Here is the method:
NaOH was added to the portions to give various pH values (Batch A-E) and packaged in 4 ounce amber PETG bottles. The samples were left at the environmentally stressed conditions of 40° centigrade or 50° centigrade for one month. HPLC methods were used to measure the percent of prednisolone acetate retained in the bottle.

Molecules are shown by their SMILES.

`CC(=O)OCC(=O)[C@@]1(O)CC[C@H]2[C@@H]3CCC4=CC(=O)C=C[C@]4(C)[C@H]3[C@@H](O)C[C@@]21C` [Prednisolone acetate, prednisolone acetate]: the “Stability as a function of pH” value is recorded as “more stable at the lower pH values”.
